This is an account of results in publication PMC8042727, “Apoptosis-like cell death upon kinetoplastid induction by compounds isolated from the brown algae Dictyota spiralis” (Parasites & Vectors, 2021).

Data set [1] deals with Trypanosoma cruzi. The experiment in a line: ATP level (CellTiter-Glo). In kind it is cell-based. The settings on record: T. cruzi, IC90, 24 h, relative to negative control. As for the experimental part: The CellTiter-Glo® luminescent cell viability assay (Promega, WI, USA) was used to quantify the adenosine triphosphate (ATP) concentration. Cells of the kinetoplastid strains (for both L. amazonensis [2 × 10^6 cells/ml] and T. cruzi [5 × 10^5cells/ml]) were incubated for 24 h with the compounds to be tested, at IC90 and 26 °C. After incubation, the cells were centrifuged and resuspended in 100 μl. To this volume, we added 100 μl of the reactive in white 96-well plates. After incubation, the luminescence signal was measured using the Enspire multimode plate reader. The decrease in ATP level was expressed as a percentage relative to the negative control. Miltefosine and benznidazole were tested as the positive control for L. amazonensis and T. cruzi, respectively.
On the technique in general: ATP-based viability assays read luminescence as a measure of living cells.

The subject of data set [2] is Trypanosoma cruzi epimastigotes (Y strain). The experiment in a line: In vitro evaluation on T. cruzi epimastigotes (AlamarBlue, 72 h). Conditions: nonlinear regression of AlamarBlue curve, read-out: IC90 Trypanosoma cruzi: epimastigote. The format is cell-based. As to the method: Experiments including in vitro activity assays of isolated compounds 1–3 were performed against the promastigote and amastigote stages of Leishmania amazonensis (MHOM/BR/77/LTB0016) and the epimastigote stage of Trypanosoma cruzi (Y strain). Promastigotes of L. amazonensis were cultured in Schneider’s medium (Sigma-Aldrich, St. Louis, MO, USA). Typanosoma cruzi strain Y was cultured in liver Infusion tryptose (LIT) medium. The three molecules 1-3 were tested against epimastigotes of T. cruzi. Briefly, the molecules were dissolved in DMSO in 96-well plates and a serially diluted concentration was made in 100 μl of LIT medium supplemented with 10% heat-inactivated FBS. In all tests, a maximum of 1% DMSO was used to dissolve the highest dose of the compounds without inducing any effects on the parasites; epimastigotes in the logarithmic growth phase were then counted, adjusted to 5 × 10^5 cells/ml, distributed on the previous 96-well plate and incubated at 27 °C for 72 h. The plate was observed under an inverted microscope after 72 h of incubation and analyzed statistically as described for the leishmanicidal test. Hoechst dye is a blue-fluorescent dye that stains condensed chromatin of apoptotic cells. To detect DNA condensation, the chromatin condensation/dead cell apoptosis kit was used (Invitrogen, Thermo Fisher Scientific, Waltham, MA, USA). Cells were incubated in the presence of the compounds to be tested at IC90. The IC90 values were determined using nonlinear regression of the AlamarBlue® curve. After 24 h of incubation, cells were harvested and resuspended in medium, following which 1 μl of Hoechst 33342 stock solution was added to parasites and incubated for 20 min. Results were analyzed by cell imaging using the Evos FL cell imaging system (Thermo Fisher Scientific). The experiments were repeated using a double-stain apoptosis detection kit (Hoechst 33342/PI; Thermo Fisher Scientific). […] A positive control was also tested: miltefosine (L. amazonensis) and benznidazole (T. cruzi).
A general note: The colour change of resazurin is a common sign of viable cells or microbes.

Data set [3] relates to Trypanosoma cruzi. The experiment in a line: Oxidative stress / ROS accumulation (CellROX Deep Red). In kind it is cell-based. The settings on record: T. cruzi, IC90, 24 h. As for the experimental part: (§1) The reagent used for this assay was a fluorogenic probe to measure cellular oxidative stress upon oxidation by reactive oxygen species (ROS). To perform the test, cells were incubated with the compounds to be tested, at IC90 for 24 h. The cells were centrifuged and resuspended in a volume of 50 μl, following which CellROX™ Deep Red oxidative stress reagent (Thermo-Fisher Scientific) was added to 96-well plates at […]. The plates were then incubated for 30 min at 37 °C. After incubation, the results were analyzed by cell imaging using the Evos cell imaging system. Cells treated with different compounds were compared with untreated control cells and the positive control. Fluorescence intensity was also measured using the Enspire multimode plate reader at excitation/emission wavelengths of 640/665 nm. Accumulation ROS at the cellular level is a good indicator of oxidative stress and is precursor to a chain reaction leading damage at the cellular level to proteins, nucleic acids, lipids, membrane and organelles. These cellular alterations can lead to activation of the cell death process. As such, ROS play an important role in cell signaling and the apoptosis pathway. An intracellular excess of ROS can be detected by the cell-permeable CellROX™ Deep Red reagent, which is a fluorogenic ROS sensor.

Data set [4] can be described thus: Cytotoxicity on macrophages (AlamarBlue, 24 h). The format is cell-based. Conditions: mouse, J774A.1 macrophages, J774A.1, 24 h, read-out: CC50: murine macrophages. As to the method: Cytotoxicity of the tested molecules was evaluated after 24 h using macrophages of the murine cell line J774.A1 (American Type Culture Collection #TIB-67). The cells were maintained in DMEM medium at 37 °C in a 5% CO2 humidified incubator. The viability of the macrophages was determined with the AlamarBlue assay and the emitted fluorescence was assayed in an Enspire microplate reader (PerkinElmer Inc.) at 570/585 nm. Briefly, 50 µl of macrophages was placed in a 96-well flat bottom plate at a density of 2 × 10^5/ml in RPMI medium supplemented with 10% FBS without phenol. Cells were allowed to adhere for 15 min, and their progress was checked using a Leika inverted microscope (Leika Camera AG, Wetzlar, Germany). At the same time, a serially dilution of the test compounds was made in a deep 96-well plate with the same medium, and then 50 µl of each serially diluted molecule was added to each well of the 96-well flat bottom plate. Finally, 10% of AlamarBlue was added to each well. The plates were incubated at 37 °C in 5% CO2 for 24 h. Dose–response curves were plotted and the 50% cytotoxic concentrations (CC50) were obtained. The analyses were performed in triplicate.

Another data set concerns L. amazonensis. Also noted: method as in PMID 22970332. The settings on record: read-out: IC50 (inhibition of infection by L. amazonensis); cited from earlier work.
For the next data set, the system named is T. cruzi. Also noted: method as in PMID 23442789. The settings on record: read-out: IC50 against T. cruzi; cited from earlier work.
In data set [5] the test system is Leishmania amazonensis promastigotes. The experiment in a line: Anti-promastigotes assay (AlamarBlue, 72 h). In kind it is cell-based. As to the method: Experiments including in vitro activity assays of isolated compounds 1–3 were performed against the promastigote and amastigote stages of Leishmania amazonensis (MHOM/BR/77/LTB0016) and the epimastigote stage of Trypanosoma cruzi (Y strain). Promastigotes of L. amazonensis were cultured in Schneider’s medium (Sigma-Aldrich, St. Louis, MO, USA). Typanosoma cruzi strain Y was cultured in liver Infusion tryptose (LIT) medium.
The bioassay was performed using the AlamarBlue® method as previously described. Promastigotes of L. amazonensis were grown at 26 °C in RPMI 1640 modified medium (Gibco BRL Life Technologies Inc., Gaithersburg, MD, USA) and supplemented with 10% heat-inactivated fetal bovine serum (FBS). Cultures in the logarithmic phase were seeded in sterilized 96-well microtiter plates (Corning™, Corning, NY, USA) (10^6 parasites/ml) containing the samples dissolved in 1% DMSO at the suitable concentration to be tested in serial dilutions, and Leishmania medium (RPMI 1640) was used to reach a final volume of 200 μl per well; then 10% of AlamarBlue® was added to the entire plate. After an incubation of 72 h, the plate was checked visually using an inverted microscope, then analyzed using an Enspire multimode plate reader (PerkinElmer, Inc., Waltham, MA, USA) at excitation and emission wavelengths of 570 and 585 nm, respectively. Dose–response curves were plotted, and the concentration at which one half of the maximal inhibitory effect was obtained (IC50) was determined. The analyses were performed in triplicate.
(§2) Hoechst dye is a blue-fluorescent dye that stains condensed chromatin of apoptotic cells. To detect DNA condensation, the chromatin condensation/dead cell apoptosis kit was used (Invitrogen, Thermo Fisher Scientific, Waltham, MA, USA). Cells were incubated in the presence of the compounds to be tested at IC90. The IC90 values were determined using nonlinear regression of the AlamarBlue® curve. After 24 h of incubation, cells were harvested and resuspended in medium, following which 1 μl of Hoechst 33342 stock solution was added to parasites and incubated for 20 min. Results were analyzed by cell imaging using the Evos FL cell imaging system (Thermo Fisher Scientific). The experiments were repeated using a double-stain apoptosis detection kit (Hoechst 33342/PI; Thermo Fisher Scientific). […] A positive control was also tested: miltefosine (L. amazonensis) and benznidazole (T. cruzi).

The test system is the same in data set [6]. The experiment in a line: DNA condensation assay (Hoechst 33342 / PI). In kind it is cell-based. The settings on record: L. amazonensis promastigotes, IC90, 24 h. As for the experimental part: as §2
DNA condensation is an important cellular event, providing evidence of apoptotic cell death. Hoechst dye is a blue-fluorescent dye that stains condensed chromatin. […] Also, using propidium iodine (PI), it is possible to distinguish dead cells, which stain red when PI penetrates the nucleus. The results of staining were evaluated using cell imaging. Different microscopy images are regrouped in Fig. 2 (for L. amazonensis) and Fig. 3 (for T. cruzi). […] A clear reduction in cell number is also evident.

Data set [7] concerns Leishmania amazonensis amastigotes. The experiment in a line: Anti-amastigotes assay (intra-macrophagic stage, J774A.1). The format is cell-based. The settings on record: J774.A1; Leishmania amazonensis, intracellular in J774A.1; read-out: IC50: amastigote. As to the method: The three molecules 1-3 were tested against the intra-macrophagic stage of L. amazonensis as previously described. Briefly, in a 96-well, flat-bottom plate, macrophages of the J774A.1 cell line (American Type Culture Collection #TIB-67) were cultured at a density of 2 × 10^5 cells/ml in RPMI 1640 medium supplemented with 10% heat-inactivated FBS and incubated for 1 h at 37 °C in a 5% CO2 atmosphere to allow almost complete attachment of the cells. The macrophages were then infected with L. amazonensis promastigotes in the stationary phase (7-day-old culture) at a ratio of 1:10 (macrophage:parasite) at a concentration of 2 × 10^6 cells/ml and incubated at 37 °C in 5% CO2 for 24 h. Wells were washed with medium to remove external promastigotes. Thereafter, the infected macrophages were treated with the serially diluted concentrations of the pure compounds for 24 h, following which the medium was removed carefully and replaced by 30 μl of new medium containing 0.05% sodium dodecyl sulfate and the plate shaken for 30 s. Subsequently, 170 μl of Schneider’s medium was added to each well to give a final volume of 200 μl, and 20 μl of AlamarBlue® was added to the plate; the plate was then incubated at 26 °C for 72 h, following which the plates were analyzed using the same protocol as for the promastigotes assay.

For another data set, the system named is Leishmania amazonensis. The experiment in a line: Oxidative stress / ROS accumulation (CellROX Deep Red). In kind it is cell-based. Conditions: L. amazonensis, IC90, 24 h. As for the experimental part:
as §1

Each structure is given as a SMILES string.

In the case of `O=C(Cn1ccnc1[N+](=O)[O-])NCc1ccccc1` [Benznidazole, reference compound], the “decrease in ATP concentration” value in the data set with Trypanosoma cruzi [1] was over 80%. Besides, the IC90 (usually the concentration needed for an effect of 90%) in data set [2] came to 25.6 µM. Also, the “ROS accumulation (fluorescence vs negative control)” value in the data set on Trypanosoma cruzi [3] was “significant increase in fluorescence”. In addition, the CC50 – broadly, the concentration giving 50% cytotoxicity – at 24 h in data set [4] is 400 µM.

As to `C[C@H]1/C=C/[C@@]2(C)CC[C@@H](C(C)(C)O)[C@@H]2[C@@H](O)C[C@](C)(O)/C=C/C1` [Dolabelladienetriol], the IC50 – broadly, the concentration that gives 50% inhibition – in the data set with L. amazonensis is 44 µM.

For the molecule `CC(C)=CC(=O)C/C(C)=C/CC/C(C)=C/CC/C(C)=C/CO` [Eleganolone], in the data set with T. cruzi, the IC50 was 58 µM.

Turning to `CCCCCCCCCCCCCCCCOP(=O)([O-])OCC[N+](C)(C)C` [Miltefosine, reference compound], the IC50 in [5] (72 h, read-out: IC50: promastigote) is 6.47 ± 0.58 µM; in data set [7] it was 3.11 µM. Besides, in data set [5] (nonlinear regression of AlamarBlue curve, read-out: IC90 Leishmania amazonensis: promastigote), the IC90 worked out at 9.63 µM. Further, the “chromatin condensation / cell death stage (Hoechst/PI staining)” value in data set [6] was “dead cells”. Besides, the “ROS accumulation (fluorescence vs negative control)” value in the data set on Leishmania amazonensis is listed as “more remarkable”. In data set [4], the CC50 at 24 h came to 72.2 µM.
